# Patent publication US11766468B2, “Method of treating prostate cancer with GnRH antagonist” (priority 2012, dated 2023)
# Square brackets hold non-standard residues; d marks the D form. Peptide text beside a SMILES is read from it. * marks the point of attachment. dPhe(4-NHCONH2) = NC(=O)Nc1ccc(C[C@@H](N)C(=O)O)cc1; Dihydroorotyl(S) = O=C1C[C@@H](C(=O)*)NC(=O)N1; dPhe(4-Cl) = N[C@H](Cc1ccc(Cl)cc1)C(=O)O; Phe(4-NH2) = Nc1ccc(C[C@H](N)C(=O)O)cc1; d2Nal = N[C@H](Cc1ccc2ccccc2c1)C(=O)O; Lys(iPr) = CC(C)NCCCC[C@H](N)C(=O)O; d3Pal = N[C@H](Cc1cccnc1)C(=O)O
# What was measured:
# testosterone = assay: CS21 phase 3 study, degarelix vs leuprolide 7.5 mg: serum testosterone suppression; assay type: in vivo, human; conditions: for Probability of sufficient testosterone response / Probability of testosterone ≤0.5 ng/mL from Day 28 through Day 364 / Probability of testosterone ≤0.5 ng/mL from Day 56 through Day 364: age <65; for patients with testosterone surge (increase ≥15% from baseline): first two weeks, pooled degarelix
# Protocol: In this example, an open-label, multi-center, randomized, parallel-group study was conducted to investigate the efficacy and safety of degarelix one month dosing regimens. […] These degarelix dosing regimens were compared to LUPRON DEPOT™ at 7.5 mg in patients with prostate cancer requiring androgen ablation therapy. […] Finally, the study evaluated the pharmacokinetics of the degarelix dosing regimens investigated. […] The primary efficacy endpoint was analyzed for both the ITT and PP analysis sets, with the ITT analysis set considered primary. The primary efficacy endpoint was analyzed using the Kaplan Meier method. For each of the three treatment groups, testosterone response rates with 95% confidence interval (CI) were calculated by log-log transformation of survivor function. […] All secondary efficacy endpoints were analyzed for both the ITT and PP analysis sets, unless otherwise stated. […] The percentage change in PSA from baseline to day 28 endpoint was analyzed by a Wilcoxon test. […] The secondary endpoints; probability of testosterone ≤0.5 ng/mL from Day 56 through Day 364, time to PSA failure and probability of sufficient testosterone response from Day 28 through Day 364 were analyzed by the Kaplan-Meier method.
# [1] = CS21: mortality by treatment group; assay type: in vivo, human
# Text: The death of a patient enrolled in this study was not considered an event per se, but rather an outcome. Any event resulting in a fatal outcome was fully documented and reported, including death, which occurred within the four weeks after treatment end, and regardless of the causality relationship to the IMP.
# Mortality Subgroups with Statistically (Pre-Planned as Part of the ISS) Significant Findings
# [2] = in vivo
# Protocol: Body weight was measured at screening and the end of study visit.
# [3] = test system: prostate-specific antigen (PSA); assay: CS21: PSA response and PSA failure; assay type: in vivo, human; conditions: for Day 14 percentage change in PSA, median / Day 28 percentage change in PSA, median: Day 0 dose degarelix 240@40; for median percentage change (reduction) in PSA from baseline: leuprolide 7.5 mg with anti-androgen flare protection; for median percentage reduction in PSA from baseline: leuprolide 7.5 mg without anti-androgen
# Protocol: (§1) The secondary efficacy endpoints were: the proportion of patients with testosterone surge during the first 2 weeks of treatment; the proportion of patients with testosterone level ≤0.5 ng/mL at day 3; the percentage change in PSA from baseline to day 28; the probability of testosterone ≤0.5 ng/mL from day 56 through day 364; the levels of serum testosterone, LH, FSH and PSA over time through the study; the time to PSA failure, defined as two consecutive increases of 50%, and at least 5 ng/mL as compared to nadir; degarelix concentration over the first month and trough levels at day 308 and 336; the frequency and size of testosterone increases at day 255 and/or 259 compared to the testosterone level at day 252; the quality of life on days 0, 28, 84, 168 and end of study visit; the frequency and intensity of hot flushes experienced (scored daily from study start until end of study visit. In addition, two further secondary endpoints were added: the probability of sufficient testosterone response from day 28 through day 364 (a patient was considered to have insufficient testosterone response if they had one testosterone value >1.0 ng/mL or two consecutive testosterone values >0.5 ng/mL at day 28 onwards); and the percentage change in PSA from baseline to Day 14.
# All secondary efficacy endpoints were analyzed for both the ITT and PP analysis sets, unless otherwise stated. The proportion of patients with testosterone surge during the first 2 weeks of treatment was analyzed using Fisher's exact test. Fisher's exact test was also used to analyze the proportion of patients with testosterone level ≤0.5 ng/mL at day 3. The percentage change in PSA from baseline to day 28 endpoint was analyzed by a Wilcoxon test.
# The secondary endpoints; probability of testosterone ≤0.5 ng/mL from Day 56 through Day 364, time to PSA failure and probability of sufficient testosterone response from Day 28 through Day 364 were analyzed by the Kaplan-Meier method.
# [4] = test system: follicle stimulating hormone (FSH); assay: CS21: serum FSH over time; assay type: in vivo, human
# Protocol: (§2) Finally, the study evaluated the pharmacokinetics of the degarelix dosing regimens investigated.
# as §1
# luteinizing hormone (LH) = assay: CS21: serum LH over time; assay type: in vivo, human
# Protocol: as §2, §1
# [5] = degarelix 240@40/80@20, LUPRON DEPOT 7.5 mg
# [6] = degarelix 240/80 mg, leuprolide 7.5 mg
# [7] = age <65, degarelix 240@40/80@20, LUPRON DEPOT 7.5 mg
# [8] = age >=75, degarelix 240@40/80@20, LUPRON DEPOT 7.5 mg
SMILES,Probability of sufficient testosterone response (testosterone; [5]) [%],Probability of testosterone ≤0.5 ng/mL from Day 28 through Day 364 (testosterone; [5]) [%],Probability of testosterone ≤0.5 ng/mL from Day 56 through Day 364 (testosterone; [5]) [%],patients with testosterone suppression on day 3 (testosterone),Kaplan-Meier probability of testosterone ≤0.5 ng/mL from day 28 to day 364 (testosterone; [6]) [%],observed cases analysis: proportion of patients with testosterone ≤0.5 ng/mL from day 28 to day 364 (testosterone; [6]) [%],patients with testosterone surge (increase ≥15% from baseline) (testosterone; leuprolide 7.5 mg) [%],Crude Mortality ([1]; Age >=65-<75),"Mortality per 1,000 PY, estimate ([1]; Age >=65-<75)",No. of Deaths ([1]; Age >=65-<75),Crude Mortality ([1]; PCA = Localized),"Mortality per 1,000 PY, estimate ([1]; PCA = Localized)",No. of Deaths ([1]; PCA = Localized),"markedly abnormal increases in weight of ≥7% from baseline, % of patients [2] [%]","Day 14 percentage change in PSA, median ([3]; PCA = Localized) [%]","Day 28 percentage change in PSA, median ([3]; PCA = Localized) [%]","Day 14 percentage change in PSA, median ([3]; PCA = Metastatic) [%]","Day 28 percentage change in PSA, median ([3]; PCA = Metastatic) [%]","Day 14 percentage change in PSA, median ([3]; PCA Locally advanced) [%]","Day 28 percentage change in PSA, median ([3]; PCA Locally advanced) [%]",further results
"CC(=O)N[C@H](Cc1ccc2ccccc2c1)C(=O)N[C@H](Cc1ccc(Cl)cc1)C(=O)N[C@H](Cc1cccnc1)C(=O)N[C@@H](CO)C(=O)N[C@@H](Cc1ccc(NC(=O)[C@@H]2CC(=O)NC(=O)N2)cc1)C(=O)N[C@H](Cc1ccc(NC(N)=O)cc1)C(=O)N[C@@H](CC(C)C)C(=O)N[C@@H](CCCCNC(C)C)C(=O)N1CCC[C@H]1C(=O)N[C@H](C)C(N)=O [Degarelix, D-Alaninamide, N-acetyl-3-(2-naphthalenyl)-D-alanyl-4-chloro-D-phenylalanyl-3-(3-pyridinyl)-D-alanyl-L-seryl-4-[[[(4S)-hexahydro-2,6-dioxo-4-pyrimidinyl]carbonyl]amino]-L phenylalanyl-4-[(aminocarbonyl)amino]-D-phenylalanyl-L leucyl-N6-(1-methylethyl)-L-lysyl-L-prolyl] (Ac-[d2Nal][dPhe(4-Cl)][d3Pal]S[Phe(4-NH2)](Dihydroorotyl(S))[dPhe(4-NHCONH2)]L[Lys(iPr)]P[dA]-NH2)",97.4,97.4,97.4,96%,97.2,97.0,0.2,(2%),"20.2 per 1,000 PY",3,(0%),"0 per 1,000 PY",0,10,−50.6,−75.0,−77.9,−89.9,−66.6,−84.1,"median testosterone level (testosterone; after one year of treatment, 80 mg monthly): 0.087 ng/mL; Probability of sufficient testosterone response (testosterone; degarelix 240/160@40): 96.7%; Probability of testosterone ≤0.5 ng/mL from Day 28 through Day 364 (testosterone; degarelix 240/160@40): 96.7%; Probability of testosterone ≤0.5 ng/mL from Day 56 through Day 364 (testosterone; degarelix 240/160@40): 96.7%; Kaplan-Meier probability of testosterone ≤0.5 ng/mL from day 28 to day 364 (testosterone; degarelix 240/160 mg): 98.3%; observed cases analysis: proportion of patients with testosterone ≤0.5 ng/mL from day 28 to day 364 (testosterone; degarelix 240/160 mg): 98.2%; patients with sustained testosterone suppression (testosterone; maintenance monthly 80 mg, at least one year): 97%; Probability of no PSA failure ([3]; age <65, degarelix 240/160@40): 71.6%; Probability of no PSA failure [3, 7]: 85.2%; Probability of no PSA failure ([3]; age >=75, degarelix 240/160@40): 94.5%; Probability of no PSA failure [3, 8]: 96.6%; probability of a PSA observation from the pooled degarelix groups being less than one from the leuprolide 7.5 mg group ([3]; day 14): 0.82; probability of a PSA observation from the pooled degarelix groups being less than one from the leuprolide 7.5 mg group ([3]; day 28): 0.70; probability of completing the study without experiencing PSA failure [3, 6]: 91.2%; probability of completing the study without experiencing PSA failure ([3]; degarelix 240/160 mg): ~85.8%; decrease in median FSH from baseline ([4]; by day 7): > 80%; median FSH level ([4]; by day 7): ≤ 1.5 IU/L; decrease in median LH from baseline (luteinizing hormone (LH); day 1): approximately 88%; median LH level (luteinizing hormone (LH); day 1): < 0.7 IU/L"
"CCNC(=O)[C@@H]1CCCN1C(=O)[C@H](CCCNC(=N)N)NC(=O)[C@H](CC(C)C)NC(=O)[C@@H](CC(C)C)NC(=O)[C@H](Cc1ccc(O)cc1)NC(=O)[C@H](CO)NC(=O)[C@H](Cc1c[nH]c2ccccc12)NC(=O)[C@H](Cc1c[nH]cn1)NC(=O)[C@@H]1CCC(=O)N1 [Leuprolide, leuprolide, reference compound]",92.1,89.5,89.5,no patients,96.4,96.0,80.1,(8%),"99.0 per 1,000 PY",6,(6%),"70.3 per 1,000 PY",4,13,−13.2,−55.7,−25.3,−79.7,−21.3,−73.2,"Probability of no PSA failure [3, 7]: 68.2%; Probability of no PSA failure [3, 8]: 86.8%; median percentage change (reduction) in PSA from baseline ([3]; day 14): 61.7%; median percentage reduction in PSA from baseline ([3]; day 14): 15.3%; median percentage change (reduction) in PSA from baseline ([3]; day 28): 89.1%; median percentage reduction in PSA from baseline ([3]; day 28): 61.7%; probability of completing the study without experiencing PSA failure [3, 6]: ~85.8%; median FSH plateau ([4]; around day 56 until day 364): approximately 4.40 IU/L; median FSH level ([4]; by day 14): 2.0 IU/L; increase in FSH from baseline ([4]; day 1): 146%; median FSH level (peak) ([4]; day 1): 22.5 IU/L; median LH level (luteinizing hormone (LH); by day 56 until day 364): 0.035 IU/L; median LH level (luteinizing hormone (LH); day 1): 31.0 IU/L; increase in median LH from baseline (luteinizing hormone (LH); day 1, leuprolide 7.5 mg): > 400%"
